Test results: PMC5988656, “Phase I studies of AZD1208, a proviral integration Moloney virus kinase inhibitor in solid and haematological cancers” (British Journal of Cancer, 2018)

Test system: patients with recurrent or refractory AML
Assay: AML dose-escalation study: safety and tolerability (AEs, DLTs)
Assay type: in vivo, human
From the text: Conducted at three centres in the USA and one in Canada. Dose escalation followed a conventional 3 + 3 design. […] In the first cohort, dosing between the first and subsequent patients was staggered with a 7-day interval. Dose-escalation decisions were based on the safety and tolerability data from ≥3 evaluable patients (or six if one of the first three patients experienced a dose-limiting toxicity [DLT]).
AZD1208 could be escalated by up to 100% in subsequent cohorts until one DLT was observed, after which succeeding doses were escalated by up to 50%.
In the case of a DLT, the cohort was expanded to six patients. If a DLT occurred in ≥2 patients within a cohort, the dose was determined to be a non-tolerated dose (NTD) and dose escalation was stopped.
Grade 3 or 4 toxicities not attributable to the disease or disease-related processes under investigation, and occurring before the end of Cycle 1, were considered DLTs.
The NTD was identified as the dose at which ≥2 DLTs occurred in a given cohort.

N[C@@H]1CCCN(c2c(/C=C3\SC(=O)NC3=O)cccc2-c2ccccc2)C1 [AZD1208]
Hyperglycaemia (all-grade AE) (700 mg, n = 7): 1 (14.3) n (%)
Hypocalcaemia (all-grade AE) (700 mg, n = 7): 3 (42.9) n (%)
Hypokalaemia (all-grade AE) (700 mg, n = 7): 2 (28.6) n (%)
Hypomagnesaemia (all-grade AE) (700 mg, n = 7): 2 (28.6) n (%)
Hypophosphataemia (all-grade AE) (700 mg, n = 7): 1 (14.3) n (%)
Hypotension (all-grade AE) (700 mg, n = 7): 3 (42.9) n (%)
Maculopapular rash (all-grade AE) (700 mg, n = 7): 2 (28.6) n (%)
Nausea (all-grade AE) (700 mg, n = 7): 5 (71.4) n (%)
Oedema peripheral (all-grade AE) (700 mg, n = 7): 2 (28.6) n (%)
Patients with any AE (all-grade AE) (700 mg, n = 7): 7 (100.0) n (%)
Pneumonia (all-grade AE) (700 mg, n = 7): 0 n (%)
Pyrexia (all-grade AE) (700 mg, n = 7): 0 n (%)
Rash (all-grade AE) (700 mg, n = 7): 1 (14.3) n (%)
Renal failure acute (all-grade AE) (700 mg, n = 7): 1 (14.3) n (%)
Stomatitis (all-grade AE) (700 mg, n = 7): 0 n (%)
Vision blurred (all-grade AE) (700 mg, n = 7): 0 n (%)
Vomiting (all-grade AE) (700 mg, n = 7): 2 (28.6) n (%)
Patients in whom AZD1208 was discontinued as a result of SAEs and AEs (900 mg (acute coronary syndrome, rash)): 2 n
Tolerability (900 mg QD): not tolerated
Abdominal pain (all-grade AE) (900 mg, n = 9): 1 (11.1) n (%)
Asthenia (all-grade AE) (900 mg, n = 9): 2 (22.2) n (%)
Chills (all-grade AE) (900 mg, n = 9): 2 (22.2) n (%)
Cough (all-grade AE) (900 mg, n = 9): 2 (22.2) n (%)
DLT detail, action taken (900 mg, n = 9): Rash, drug permanently discontinued; maculopapular rash, drug permanently discontinued
Decreased appetite (all-grade AE) (900 mg, n = 9): 1 (11.1) n (%)
Dehydration (all-grade AE) (900 mg, n = 9): 4 (44.4) n (%)
Diarrhoea (all-grade AE) (900 mg, n = 9): 4 (44.4) n (%)
Dyspnoea (all-grade AE) (900 mg, n = 9): 2 (22.2) n (%)
Fatigue (all-grade AE) (900 mg, n = 9): 2 (22.2) n (%)
Febrile neutropenia (all-grade AE) (900 mg, n = 9): 3 (33.3) n (%)
Headache (all-grade AE) (900 mg, n = 9): 0 n (%)
Hyperglycaemia (all-grade AE) (900 mg, n = 9): 2 (22.2) n (%)
Hypocalcaemia (all-grade AE) (900 mg, n = 9): 1 (11.1) n (%)
Hypokalaemia (all-grade AE) (900 mg, n = 9): 2 (22.2) n (%)
Hypomagnesaemia (all-grade AE) (900 mg, n = 9): 1 (11.1) n (%)
Hypophosphataemia (all-grade AE) (900 mg, n = 9): 2 (22.2) n (%)
Hypotension (all-grade AE) (900 mg, n = 9): 2 (22.2) n (%)
Maculopapular rash (all-grade AE) (900 mg, n = 9): 1 (11.1) n (%)
Nausea (all-grade AE) (900 mg, n = 9): 2 (22.2) n (%)
Oedema peripheral (all-grade AE) (900 mg, n = 9): 2 (22.2) n (%)
Patients with any AE (all-grade AE) (900 mg, n = 9): 9 (100.0) n (%)
Pneumonia (all-grade AE) (900 mg, n = 9): 0 n (%)
Pyrexia (all-grade AE) (900 mg, n = 9): 3 (33.3) n (%)
Rash (all-grade AE) (900 mg, n = 9): 2 (22.2) n (%)
Renal failure acute (all-grade AE) (900 mg, n = 9): 0 n (%)
Stomatitis (all-grade AE) (900 mg, n = 9): 0 n (%)
Vision blurred (all-grade AE) (900 mg, n = 9): 0 n (%)
Vomiting (all-grade AE) (900 mg, n = 9): 1 (11.1) n (%)
Abdominal pain (all-grade AE) (Total N = 32): 6 (18.8) n (%)
Asthenia (all-grade AE) (Total N = 32): 5 (15.6) n (%)
Chills (all-grade AE) (Total N = 32): 4 (12.5) n (%)
Cough (all-grade AE) (Total N = 32): 8 (25.0) n (%)
Decreased appetite (all-grade AE) (Total N = 32): 4 (12.5) n (%)
Dehydration (all-grade AE) (Total N = 32): 4 (12.5) n (%)
Diarrhoea (all-grade AE) (Total N = 32): 14 (43.8) n (%)
Dyspnoea (all-grade AE) (Total N = 32): 7 (21.9) n (%)
Fatigue (all-grade AE) (Total N = 32): 10 (31.3) n (%)
Febrile neutropenia (all-grade AE) (Total N = 32): 9 (28.1) n (%)
Headache (all-grade AE) (Total N = 32): 4 (12.5) n (%)
Hyperglycaemia (all-grade AE) (Total N = 32): 5 (15.6) n (%)
Hypocalcaemia (all-grade AE) (Total N = 32): 7 (21.9) n (%)
Hypokalaemia (all-grade AE) (Total N = 32): 7 (21.9) n (%)
Hypomagnesaemia (all-grade AE) (Total N = 32): 7 (21.9) n (%)
Hypophosphataemia (all-grade AE) (Total N = 32): 6 (18.8) n (%)
Hypotension (all-grade AE) (Total N = 32): 10 (31.3) n (%)
Maculopapular rash (all-grade AE) (Total N = 32): 4 (12.5) n (%)
Nausea (all-grade AE) (Total N = 32): 15 (46.9) n (%)
Oedema peripheral (all-grade AE) (Total N = 32): 9 (28.1) n (%)
Patients with any AE (all-grade AE) (Total N = 32): 31 (96.9) n (%)
Pneumonia (all-grade AE) (Total N = 32): 6 (18.8) n (%)
Pyrexia (all-grade AE) (Total N = 32): 4 (12.5) n (%)
Rash (all-grade AE) (Total N = 32): 4 (12.5) n (%)
Renal failure acute (all-grade AE) (Total N = 32): 4 (12.5) n (%)
Stomatitis (all-grade AE) (Total N = 32): 5 (15.6) n (%)
Vision blurred (all-grade AE) (Total N = 32): 4 (12.5) n (%)
Vomiting (all-grade AE) (Total N = 32): 10 (31.3) n (%)
Deaths during the study (all attributed to disease progression): nine
ECG abnormalities (all doses): No clinically significant ECG abnormalities
Patients with DLTs (all doses): five
AEs judged possibly related to AZD1208, patients (all doses, 32 patients): 68.8%
AZD1208 discontinued as a result of SAEs and AEs, patients (all doses, 32 patients): 25%
Diarrhoea possibly related to AZD1208, patients (all doses, 32 patients): 21.9%
Diarrhoea, patients (all doses, 32 patients): 43.8%
Fatigue possibly related to AZD1208, patients (all doses, 32 patients): 18.8%
Gastrointestinal disorders AEs, patients (all doses, 32 patients): 87.5%
Grade ≥3 febrile neutropenia, patients (all doses, 32 patients): 28.1%
Grade ≥3 hypotension, patients (all doses, 32 patients): 18.8%
Grade ≥3 pneumonia, patients (all doses, 32 patients): 15.6%
Nausea possibly related to AZD1208, patients (all doses, 32 patients): 37.5%
Nausea, patients (all doses, 32 patients): 46.9%
Patients who experienced an AE (all doses, 32 patients): 96.9%
Patients with a grade ≥3 AE (all doses, 32 patients): 24 n
SAE abdominal pain, patients (all doses, 32 patients): 6.3%
SAE back pain, patients (all doses, 32 patients): 6.3%
SAE febrile neutropenia, patients (all doses, 32 patients): 25.0%
SAE hypotension, patients (all doses, 32 patients): 6.3%
SAE maculopapular rash, patients (all doses, 32 patients): 6.3%
Serious AEs (SAEs), patients (all doses, 32 patients): 71.9%
Treatment-related SAEs, patients (all doses, 32 patients): 15.6%
Vomiting possibly related to AZD1208, patients (all doses, 32 patients): 18.8%
Time of DLT occurrence after the start of treatment (five patients with DLTs): 1 to 10 days
Doses generally tolerated (heavily pretreated AML, QD oral): up to 700 mg
